According to patent US4002690A (priority 1974, dated 1977):
Counter-ions that a name gives are not always drawn.

Tests used:
[1] = system: Newcastle disease virus (NDV); test: microbe, parasite or virus in culture; assay type: cell-based, Newcastle disease virus (host: chick embryo); conditions: for inhibition at 39 µg/mL / inhibition at 78 µg/mL / inhibition at 156 µg/mL: avian paramyxovirus 1, in Gallus gallus, 48 h, read-out: % Inhibition of NDV Multiplications
[2] = Antiviral activity in vivo (statement only); conditions: no test details given

| Structure (SMILES) | inhibition at 39 µg/mL [1] [%] | inhibition at 78 µg/mL [1] [%] | inhibition at 156 µg/mL [1] [%] | antiviral activity in vivo [2] | antiviral activity compared with Amantadine hydrochloride ([1]; NDV, in vitro, chick embryo monolayer tissue culture) | virus replication in the tissue culture ([1]; containing above 39 μg/ml of carbinol (II)) |
| --- | --- | --- | --- | --- | --- | --- |
| NC12CC3CC(CC(C3)C1)C2 [Amantadine.HCl, reference compound] | 0 | 0 | 0 |  |  |  |
| OCC12CCCC3CC(CCC31)C2 (stereo not drawn) [II] | 0 | 91.2 | 99.8 | potent antiviral activity in vivo | extremely superior to that of Amantadine hydrochloride | almost completely inhibited |
